Measured values reported in PubChem BioAssay AID1645871.

Conditions: pampa; pH 5.0; 30.0 min; 50.0 µM

Row | Structure (SMILES) | Papp
1 | Cc1ccc(-n2ncc3c(NCCCn4ccnc4)ncnc32)cc1Cl | 559 ×10⁻⁶ cm/s
2 | O=C(Cc1cccs1)NCc1nnc2ccc(-c3ccccc3)nn12 | 55.9 ×10⁻⁶ cm/s
3 | O=C(c1cc2ccccc2[nH]1)N1CCc2c(n(Cc3cccnc3)n(CCc3ccccc3)c2=O)C1 | 229 ×10⁻⁶ cm/s
4 | Cc1cccc(N(C)c2nc3ccccc3c3nnc(C)n23)c1 | > 1000 ×10⁻⁶ cm/s
5 | COc1ccc2[nH]c(C[C@@H]3C[C@@H](C(C)C)[C@H](CNCc4ccccc4O)C=C3C)nc2n1 | 739 ×10⁻⁶ cm/s
6 | CN(C(=O)CSc1nc2ccc(NC(=O)c3ccc(F)cc3)cc2s1)c1ccccc1 | 901 ×10⁻⁶ cm/s
7 | CCn1ncc(NC(=O)Cn2ncc3cc(-c4cccc(OC)c4)ccc32)n1 | 853 ×10⁻⁶ cm/s
8 | COc1ccc(-n2nc(C3CCN([S+](=O)([O-])c4cccc(C(F)(F)F)c4)CC3)[nH]c2=O)cc1 | 434 ×10⁻⁶ cm/s
9 | S=c1[nH]c2ccccc2n1CCc1ccccc1 | 903 ×10⁻⁶ cm/s
10 | O=C(Nc1ccc(N2CCC(N3CCCCC3)CC2)c(C(=O)O)c1)c1ccc(Br)cc1 | 7.15 ×10⁻⁶ cm/s
11 | COCC(C)NCc1cc2ccc(OC)cc2nc1N1CCN(c2ccc(F)cc2)CC1 (centres undefined) | 576 ×10⁻⁶ cm/s
12 | CCCCOc1ccc(C2c3c(oc4ccc(C)cc4c3=O)C(=O)N2CCCN(C)C)cc1OCC (centres undefined) | 273 ×10⁻⁶ cm/s
13 | CNC(=O)c1ccccc1Nc1nc(Nc2ccc(N3CCOCC3)cc2OC)ncc1Cl | 145 ×10⁻⁶ cm/s
14 | COc1ccc(CN2CCNc3cc(Nc4ccccc4)ncc3C2)cn1 | 2.38 ×10⁻⁶ cm/s
15 | O=C(Cc1ccc(O)cc1)N1CC(CNc2ccccc2)C2(C1)CN(c1ccccc1)C2 (centres undefined) | 616 ×10⁻⁶ cm/s
16 | CCc1ccc2ncc(C(=O)c3ccc(C)c(C)c3)c(N3CCC(C(N)=O)CC3)c2c1 | 653 ×10⁻⁶ cm/s
17 | CNc1nc(-c2ccc3c(N)n[nH]c3c2)cc(N2C[C@@H](C(=O)NC3CCCCC3)CC[C@H]2C)n1 | 26.1 ×10⁻⁶ cm/s
18 | O=C(NC1CCCc2c1[nH]c1c(Cl)cccc21)c1ccc2c(c1)OCO2 (centres undefined) | 190 ×10⁻⁶ cm/s
19 | Fc1ccc(N2CCCN(CC3[C@H]4CNC[C@@H]34)CC2)cc1 (some centres undefined) | 48.8 ×10⁻⁶ cm/s
20 | O=C1CN(C(=O)CCC(=O)N2CCc3c(nc4cc(-c5ccccc5)[nH]n4c3=O)C2)c2ccccc2N1 | 6.84 ×10⁻⁶ cm/s
21 | O=C(NC1CCCc2c1[nH]c1ccccc21)c1ccccc1 (centres undefined) | 680 ×10⁻⁶ cm/s
22 | N#Cc1cccc(NC(=O)c2sc3nc4c(cc3c2N)N2CCC4CC2)c1 | 285 ×10⁻⁶ cm/s
23 | CCOc1ccc(Nc2nc(C)c(NC(=O)c3ccc(C)cc3)c(Nc3ccc(OCC)cc3)n2)cc1 | 59 ×10⁻⁶ cm/s
24 | CC(C(O)c1ccc(O)cc1)N1CCC(Cc2ccccc2)CC1 (centres undefined) | 40.6 ×10⁻⁶ cm/s
25 | Cc1cnc(-c2ccccc2C(C)C)nc1NCc1ccc(-n2ccnn2)cc1 | 663 ×10⁻⁶ cm/s
26 | CCS(=O)(=O)c1ncc(N(Cc2ccc(F)cc2)Cc2ccco2)c(C(=O)Nc2cc(C)ccc2C)n1 | 696 ×10⁻⁶ cm/s

Row | Structure (SMILES) | Papp
27 | CCC(CC)c1cc([C@H]2CN3CC[C@H]2C[C@@H]3CNS(=O)(=O)c2cccs2)nc(-c2ccncc2)n1 | 750 ×10⁻⁶ cm/s
28 | O=C(NCC1CCN(Cc2cccc(Cl)c2)CC1)Nc1ccc(F)c(Cl)c1 | 638 ×10⁻⁶ cm/s
29 | CCN(CC)C(=O)c1coc(COc2ccc3c(c2)C(c2cccc(F)c2)N(C(=O)C(C)C)CC3)n1 (centres undefined) | > 1000 ×10⁻⁶ cm/s
30 | CC(C)(C)C(=O)N1CCN(c2nccc(Nc3ccccc3Cl)n2)CC1 | 895 ×10⁻⁶ cm/s
31 | CCC(CC)c1cc([C@H]2CN3CC[C@H]2C[C@@H]3CNC(C)=O)nc(-c2ccncc2)n1 | 14.9 ×10⁻⁶ cm/s
32 | CC(C)n1cc(-c2ccc3c(c2)N(C)CC3)c2c(NS(=O)(=O)c3ccn(C)n3)ccnc21 | > 1000 ×10⁻⁶ cm/s
33 | CSc1ccccc1N1CCN(CCCCCC(=O)NC2CCCc3ccccc32)CC1 (centres undefined) | 628 ×10⁻⁶ cm/s
34 | C[C@H]1CN(C(=O)Nc2ccc(F)cc2F)C[C@@H]1c1nc(-c2ccccc2)no1 | 917 ×10⁻⁶ cm/s
35 | COc1cccc(N2CCN(c3ncc4c(n3)CCN(Cc3ccc(Br)cc3)C4)CC2)c1 | 939 ×10⁻⁶ cm/s
36 | COc1cc(Cl)c(C)cc1Nc1c2c(nc3ccccc13)CCC2 | > 1000 ×10⁻⁶ cm/s
37 | COc1cc2c(cc1Oc1cccc(N(C)C)c1)NC(=O)C21CCN(c2cnccn2)CC1 | > 1000 ×10⁻⁶ cm/s
38 | O=C(Nc1cccc(F)c1)c1cc(-c2ccc[nH]2)n[nH]1 | 75.6 ×10⁻⁶ cm/s
39 | O=C(CCCCn1c(=O)[nH]c2ccsc2c1=O)N1CCN(c2cccc(Cl)c2)CC1 | 719 ×10⁻⁶ cm/s
40 | Nc1ncc(S(=O)(=O)N2CCN(c3ccccc3)CC2)cn1 | 6.73 ×10⁻⁶ cm/s
41 | COC(=O)c1cc2occc2n1Cc1nc(-c2ccc(C)cc2)oc1C | 257 ×10⁻⁶ cm/s
42 | Cc1ccccc1S(=O)(=O)N1CCCC(CCC(=O)NCCN(C)C2CCCCC2)C1 (centres undefined) | 32.8 ×10⁻⁶ cm/s
43 | Fc1ccc(CN2CCNc3cc(Nc4ccccc4)ncc3C2)cc1F | 340 ×10⁻⁶ cm/s
44 | Cc1ccc(NC(=O)c2cc(-c3ccc[nH]3)n[nH]2)cc1F | 235 ×10⁻⁶ cm/s
45 | COc1ccc(-n2nc(C3CCN(C(=O)c4ccccc4)CC3)[nH]c2=O)cc1 | 250 ×10⁻⁶ cm/s
46 | COc1ncc(-c2ccc3c(Nc4cc(Oc5cc(F)cc(F)c5)cc(C(=O)O)c4)c(S(=O)(=O)NC4CC4)cnc3c2)c(OC)n1 | 1.2 ×10⁻⁶ cm/s
47 | O=C(O)c1ccc(N2C(=O)/C(=C/c3ccc(-c4ccc([N+](=O)[O-])cc4)o3)C=C2c2ccccc2)cc1 | 37.5 ×10⁻⁶ cm/s
48 | FC(F)(F)c1ccc(CN2CCNc3cc(Nc4ccccc4)ncc3C2)cc1 | 21.1 ×10⁻⁶ cm/s
49 | Cc1cc(C)nc(NS(=O)(=O)c2ccc(NC(=S)NC(=O)COc3ccc(Br)cc3Cl)cc2)n1 | > 1000 ×10⁻⁶ cm/s
50 | COc1ccc(CCNC(=O)Cn2c(=O)c3cccn3c3ccc(F)cc32)cc1OC | 317 ×10⁻⁶ cm/s
51 | Oc1ccc(CN2CC(CNc3ccccc3)C3(C2)CN(c2ccccc2)C3)cc1 (centres undefined) | > 1000 ×10⁻⁶ cm/s
52 | CC(NCc1ccc2c(c1)nc(NC(=O)c1ccc(-c3cn[nH]c3)s1)n2CC(C)(C)O)C(C)(C)C (centres undefined) | 4.16 ×10⁻⁶ cm/s

Row | Structure (SMILES) | Papp
53 | CC(C)Oc1cccc(C2CC(=O)Nc3cc4c(cc32)OCO4)c1 (centres undefined) | 785 ×10⁻⁶ cm/s
54 | CCCCN(C)C(=O)c1c(C)sc2ccn(CCC)c(=O)c12 | 113 ×10⁻⁶ cm/s
55 | CC(C)CNc1ccnc(NCc2csc(-c3ccccc3)n2)n1 | > 1000 ×10⁻⁶ cm/s
56 | COc1ccc(C(=O)NC2CCCc3c2[nH]c2ccccc32)cc1OC (centres undefined) | 238 ×10⁻⁶ cm/s
57 | Nc1nc2c(s1)C(c1ccc(F)cc1F)CC(=O)N2 (centres undefined) | 5 ×10⁻⁶ cm/s
58 | CNc1oc(-c2cccc3ccccc23)nc1C#N | 645 ×10⁻⁶ cm/s
59 | N#Cc1ccc(C(=O)Nc2ccc(Cl)c(-c3nc4cc(Cl)ccc4o3)c2)c(F)c1 | 679 ×10⁻⁶ cm/s
60 | COc1ccc(CCNc2ncnc3onc(C)c23)c(OC)c1 | 540 ×10⁻⁶ cm/s
61 | CC(C)(C)c1ccc(S(=O)(=O)N2CCC(c3ccncc3)CC2)cc1 | 754 ×10⁻⁶ cm/s
62 | O=C(Nc1ccc2c(N3CCCCC3)ncnc2c1)c1cc(F)cc(F)c1 | 817 ×10⁻⁶ cm/s
63 | Cc1ccc(Cl)cc1NS(=O)(=O)c1cc2c(cc1F)NC(=O)CC2 | 617 ×10⁻⁶ cm/s
64 | Cc1cc(NS(=O)(=O)c2ccc3c(c2)CCC(=O)N3)ccc1F | 463 ×10⁻⁶ cm/s
65 | CCOc1ccccc1CNS(=O)(=O)c1ccc(-c2cnc(C3CC3)o2)cc1 | > 1000 ×10⁻⁶ cm/s
66 | COc1cc([C@@H](CC(=O)O)c2ccc(C)c(CN3C[C@@H](C)Oc4ccccc4S3(=O)=O)c2)cc2nnn(C)c12 | 898 ×10⁻⁶ cm/s
67 | COc1ccc2c(c1)N(C[C@H](C)CN(C)C)c1ccccc1S2 | 723 ×10⁻⁶ cm/s
68 | Cn1nnnc1Sc1ncnc2scc(-c3cc4ccccc4o3)c12 | 52.8 ×10⁻⁶ cm/s
69 | CCN(c1ccccc1)S(=O)(=O)c1c(C)nc2scc(C)n2c1=O | 479 ×10⁻⁶ cm/s
70 | O=c1[nH]c(N2CCOCC2)nc2c1CCN(Cc1cc(Cl)ccc1F)CC2 | 46.3 ×10⁻⁶ cm/s
71 | CN(C)c1ccc(CN2CCNc3cc(Nc4ccccc4)ncc3C2)cc1 | 107 ×10⁻⁶ cm/s
72 | COc1ccc2c(c1)CN(C(=O)CCN1CCC(Cc3ccccc3)CC1)CCS2 | 807 ×10⁻⁶ cm/s
73 | COc1ccc(-n2nc(C3CCCN(C(=O)c4ccc(C)cc4)C3)[nH]c2=O)cc1 (centres undefined) | 603 ×10⁻⁶ cm/s
74 | COc1cc2c(c(OC)c1OC)-c1ccc(SC)c(=O)cc1C(N)CC2 (centres undefined) | 55 ×10⁻⁶ cm/s
75 | Cc1ccc2oc3c(c(=O)c2c1)C(c1ccc(O)cc1)N(CCCN(C)C)C3=O (centres undefined) | 3.9 ×10⁻⁶ cm/s
76 | Fc1cccc(CN2CCNc3cc(Nc4ccccc4)ncc3C2)c1 | 5.74 ×10⁻⁶ cm/s
77 | COc1ccc(OC)c(Nc2c3c(nc4ccccc24)CCC3)c1 | 129 ×10⁻⁶ cm/s
78 | COc1ccc(OC)c(-n2c3c(cc(-c4nc(-c5ccc(Cl)cc5)cs4)c2=O)C(=O)CC(C)(C)C3)c1 | 331 ×10⁻⁶ cm/s

Row | Structure (SMILES) | Papp
79 | COc1ccc(C)cc1NC(=O)c1cnc(-c2ccc(F)cc2)nc1-c1ccncc1 | 926 ×10⁻⁶ cm/s
80 | COc1ccccc1-c1nc(NCc2ccc(-c3cccnc3)cc2)c2ccccc2n1 | 727 ×10⁻⁶ cm/s
81 | N#Cc1ccc(-c2ccc(CNc3ccc(C4CCNCC4)cc3)o2)cc1 | 236 ×10⁻⁶ cm/s
82 | O=C(NC1CC1)C1CCCN1C(=O)c1cccc(-c2ccccn2)c1 (centres undefined) | 76.5 ×10⁻⁶ cm/s
83 | O=C(O)Cc1ccc2oc(-c3ccc(NC(=O)/C=C/c4ccc(Br)cc4)c(F)c3)nc2c1 | 405 ×10⁻⁶ cm/s
84 | Cn1cnc2c(F)c(Nc3ccc(Br)cc3Cl)c(C(=O)NOCCO)cc21 | 151 ×10⁻⁶ cm/s
85 | COc1ccc(-c2ccc3ncc(Nc4ccc(C(N)=O)cc4)n3n2)cc1OC | 81.8 ×10⁻⁶ cm/s
86 | C[C@H]1CN(C(=O)c2nn(C)c3ccccc23)C[C@@H]1c1nc(-c2ccncc2)no1 | 667 ×10⁻⁶ cm/s
87 | O=C(O)c1ccc(Nc2nc(-c3cc4ccccc4oc3=O)cs2)cc1O | 74.2 ×10⁻⁶ cm/s
88 | CCN(CC)CCCC(C)Nc1cc(/C=C/c2ccccc2Cl)nc2cc(Cl)ccc12 (centres undefined) | 82.9 ×10⁻⁶ cm/s
89 | Clc1ccc(C2(c3ccc(-c4cn[nH]c4)cc3)CCNCC2)cc1 | 3.6 ×10⁻⁶ cm/s
90 | Cc1ccccc1NC(=O)Nc1cccs1 | 209 ×10⁻⁶ cm/s
91 | COc1ccc(C)cc1NS(=O)(=O)c1ccc(-c2cnc(C3CC3)o2)cc1 | 883 ×10⁻⁶ cm/s
92 | FC(F)(F)c1ccccc1-c1nc(NCc2ccc(-c3cccnc3)cc2)c2ccccc2n1 | 712 ×10⁻⁶ cm/s
93 | COC(=O)C1=C(C)NC(C)=C(C(=O)O[C@@H]2CCCN(Cc3ccccc3)C2)[C@@H]1c1cccc([N+](=O)[O-])c1 | > 1000 ×10⁻⁶ cm/s
94 | O=C(Cc1c[nH]c2ncc(-c3ccc(Cl)cc3)cc12)NCc1cccnc1 | 818 ×10⁻⁶ cm/s
95 | O=S(=O)(Nc1ccc(-c2cccnc2)c2cccnc12)c1cccc(C(F)(F)F)c1 | > 1000 ×10⁻⁶ cm/s
96 | c1ccc(CNc2nc(NCc3ccccc3)c3ccccc3n2)cc1 | 190 ×10⁻⁶ cm/s
97 | O=C(C1CC(=O)N(c2n[nH]c3ccccc23)C1)N1CCC(c2noc3cc(F)ccc23)CC1 (centres undefined) | 635 ×10⁻⁶ cm/s
98 | CCOc1cc(CNc2ccc(O)cc2)ccc1OCc1ccc(Cl)cc1 | 187 ×10⁻⁶ cm/s
99 | CCCCCn1c(CCCNC(=O)c2ccccc2OC)nc2ccccc21 | 491 ×10⁻⁶ cm/s
100 | O=C(Nc1ccccc1-c1cn2c(CN3CCNCC3)csc2n1)c1cnc2ccccc2n1 | 342 ×10⁻⁶ cm/s
101 | COc1ccc2[nH]c(S(=O)Cc3ncc(C)c(OC)c3C)nc2n1 (centres undefined) | 49.8 ×10⁻⁶ cm/s
102 | O=c1ncn2nc(Sc3ccc(F)cc3F)ccc2c1-c1c(Cl)cccc1Cl | 793 ×10⁻⁶ cm/s
103 | CCOc1ccccc1C(=O)Nc1ccncc1C(=O)Nc1cccc(S(=O)(=O)C(F)(F)F)c1 | 139 ×10⁻⁶ cm/s
104 | Cn1c(CN2CCCCC2)nc2cc(NC(=O)c3cccc(Br)c3)ccc21 | 178 ×10⁻⁶ cm/s
